From patent US20250163057A1, “DCN-1 MODULATING COMPOUNDS AND METHODS OF USE THEREOF” (Cellarity, Inc., priority 2023, published 2025) come the findings set out here.

Test [1] has as its system Cullin-3 (CUL3) neddylation. The test is described as follows: AlphaLISA assay for Cullin-3 (CUL3) neddylation in TF 1 cells. The following applies: 3 hours treatment. It counts as cell-based. The protocol: An AiphaLISA assay was performed to evaluate the ability of the compounds to suppress neddylation, which is downstream from DCN-1 and DCN-2. A stronger inhibition of DCN-1 and DCN-2 is expected to result in a suppression of neddylation as shown by a lower AlphaLISA signal. The AlphaLISA assay for detecting Cullin-3 (CUL3) neddylation was performed according to manufacturer instructions (Revvity, Hopkinton, MA). Briefly, TF 1 cells (ATCC) were plated in Iscove's Modified Dulbecco's Medium (IMIDM) without supplements in 384-well plates. These cells were treated with […] for 3 hours before lysing them with AlphaLISA lysis buffer, 5× (Revvity). To detect the level of CUL3 neddylation, biotinylated anti-NEDD8 antibody, was added followed by AlphaLISA Acceptor beads conjugated with anti-CUL3 antibody. After overnight incubation, Streptavidin-coated Alpha Donor beads were added and incubated for 1 hour. The AlphaLISA signal was then read on a VICTOR Nivo Multimode Microplate Reader (Revvity, Hopkinton, MA). The positive control was 1 μM DI-1548, which is reported to reduce CUL3 neddylation, also referred to as C-1 in Example 41 (Zhou et al. Nature Comm. 2021). The neddylation signal was normalized such that the percent inhibition is 0% for vehicle control and 100% for positive control. The dose-response curves were fitted with the Hill equation to obtain IC50 values (Graphpad Prism).
In general terms: Alpha assays give light when donor and acceptor beads are brought close together.

The target of test [2] is DCN1 (DCUND1) protein PONY domain (Homo sapiens (Human), UniProt Q96GG9). The test is described as follows: TR-FRET assay, DCN1 binding with FAM-labeled probe. Put shortly:
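Binding was read as the TR-FRET ratio between a FAM-tagged inhibitor probe and Tb-labeled biotinylated E. coli-expressed DCN1 PONY domain, measured 1, 5 and 24 h after compound addition. The two setups used 5 nM protein/20 nM FAM-probe or 0.31 nM protein/900 nM total probe (100 nM labeled), in TritonX buffer with 200 mM NaCl.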
For orientation: TR-FRET usually uses a lanthanide donor and a delayed reading to cut background.

Where [3] appears, read: 24 hr after treatment with compound, read-out: TR FRET IC50 24 hr.
Setting [4] is: TR FRET IC50 1 hr (nM), 1 hr after treatment with compound.
[5] abbreviates: read-out: TR FRET IC50 1 hr, 1 hr after treatment with compound.

Where two headings read alike, the source gives them in different places.

Broadly, the IC50 is the concentration needed to halve the response being measured.

DCN1 (DCUND1) protein PONY domain, sequence (Q96GG9 60-248): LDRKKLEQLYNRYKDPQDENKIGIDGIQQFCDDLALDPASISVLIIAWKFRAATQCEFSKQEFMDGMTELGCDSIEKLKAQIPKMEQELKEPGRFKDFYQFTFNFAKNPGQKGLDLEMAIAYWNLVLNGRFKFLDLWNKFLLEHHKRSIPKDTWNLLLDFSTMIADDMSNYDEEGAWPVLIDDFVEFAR

As for `CCCn1nc(C(=O)N2CCC[C@H]2C#N)c2c1N(CC)C(=O)[C@@H](NC(=O)c1cccc(C(F)(F)F)c1)[C@H]2c1ccc(F)cc1` [Compound I-428], the IC50 was not above 100 nM in test [1] (Homo sapiens, TF-1, 3 h); not above 200 nM in test [2] (setting [3]); 200 to 1000 nM in test [2] (setting [4]).
Regarding `CCN1C(=O)[C@@H](NC(=O)c2cccc3c2OCC3)[C@@H](C2CC2)c2c(C(=O)N3[C@H](C#N)C[C@H]4C[C@H]43)nn(C3CCOCC3)c21` [Compound I-445], the values for the IC50 in test [1] (Homo sapiens), in test [2] (setting [3]) and in test [2] (setting [5]) were not above 100 nM, not above 200 nM and not above 200 nM, respectively.
Consider `CCN1C(=O)[C@H](NC(=O)c2cccc(C(F)(F)F)c2)[C@H](c2ccc(F)cc2)c2c([C@H](C)NC#N)nn(-c3ccccc3)c21` [Compound I-410], for which the IC50 in test [1] (Homo sapiens, TF-1, 3 h) fell in the range of 100 to 1000 nM; in test [2] (setting [3]) it was 200 to 1000 nM; in test [2] (setting [4]) it was 1000 to 3000 nM.
With `C=CC(=O)N[C@H](C)c1nn(-c2ccccc2)c2c1[C@H](c1ccc(F)cc1)[C@@H](NC(=O)c1nccc(C(F)(F)F)n1)C(=O)N2CC` [Compound I-605], the IC50 was more than 1000 nM in test [1] (Homo sapiens, TF-1, 3 h); 1000 to 3000 nM in test [2] (setting [3]); 1000 to 3000 nM in test [2] (setting [4]).
Consider `CCN1C(=O)[C@@H](NC(=O)c2cccc(C(F)(F)F)c2)[C@@H](C2CCC2)c2c(C(=O)N(CC#N)C3CC3)nn(C3CCOCC3)c21` [Compound I-515], for which the IC50 in test [1] (Homo sapiens, TF-1, 3 h) is 100 to 1000 nM; in test [2] (setting [3]), not above 200 nM; in test [2] (setting [4]) it was 200 to 1000 nM.
For `CCN1C(=O)[C@H](NC(=O)c2cccc(C(F)(F)F)c2)[C@H](C2CC2)c2c(C(=O)N(CC#N)C3CC3)nn(C3CCOCC3)c21` [Compound I-405], the IC50 in test [1] (Homo sapiens, TF-1, 3 h) is more than 1000 nM; in test [2] (setting [3]) it was 1000 to 3000 nM; in test [2] (setting [4]), 1000 to 3000 nM.
On to `CCN1C(=O)[C@@H](NC(=O)c2cccc(C(F)(F)F)c2)[C@@H](C2CC2)c2c(C(=O)N3[C@H](C#N)CC[C@@H]3C)nn(C3CCOCC3)c21` [Compound I-700], for which the IC50 lay within 100 to 1000 nM in test [1] (Homo sapiens, TF-1, 3 h); 200 to 1000 nM in test [2] (setting [3]); 1000 to 3000 nM in test [2] (setting [4]).
For `CCN1C(=O)[C@H](NC(=O)c2cccc(C(F)(F)F)c2)[C@H](c2ccc(F)cc2)c2c(C(=O)N3[C@H](C#N)C[C@H]4C[C@H]43)nn(-c3ccccc3)c21` [Compound I-541] the same measures were more than 1000 nM, 1000 to 3000 nM and 1000 to 3000 nM.
As for `CCN1C(=O)[C@@H](NC(=O)c2cccc(C(F)(F)F)c2)[C@@H](c2ccc(F)cc2)c2c(C(=O)N(C)CC#N)nn(-c3ccccc3)c21` (racemic) [Compound I-398], the IC50 in test [1] is more than 1000 nM; in test [2] (setting [3]), 1000 to 3000 nM; in test [2] (setting [4]) it was 1000 to 3000 nM.
Regarding `CCN1C(=O)[C@@H](NC(=O)c2cccc(C(F)(F)F)c2)[C@@H](c2ccccn2)c2c(C(=O)N3CCC[C@H]3C#N)nn(-c3ccccc3)c21` (mixture of isomers) [Compound I-413], the IC50 was not above 100 nM in test [1] (Homo sapiens, TF-1, 3 h); not above 200 nM in test [2] (setting [3]); 1000 to 3000 nM in test [2] (setting [4]).
On to `CCN1C(=O)[C@@H](NC(=O)c2cccc3ncoc23)[C@@H](C2CC2)c2c(C(=O)N3[C@H](C#N)C[C@H]4C[C@H]43)nn(C3CCOCC3)c21` [Compound I-565], for which the IC50 was not above 100 nM in test [1] (Homo sapiens, TF-1, 3 h); not above 200 nM in test [2] (setting [3]); 200 to 1000 nM in test [2] (setting [4]).
For the compound `CCN1C(=O)[C@@H](NC(=O)c2cccc(C(F)(F)F)c2)[C@@H](C2CC2)c2c(C(=O)N(C)C(C)C#N)nn(-c3ccccc3)c21` (mixture of isomers) [Compound I-543], the IC50 in test [1] (Homo sapiens, TF-1, 3 h) is 100 to 1000 nM; in test [2] (setting [3]) it was not above 200 nM; in test [2] (setting [5]), not above 200 nM.
Regarding `CCN1C(=O)[C@@H](NC(=O)c2nccc(C(F)(F)F)n2)[C@H](c2ccc(F)cc2)c2c(CN(C)C(=O)CC#N)nn(-c3ccccc3)c21` [Compound I-402, N-((4R,5S)-3-((2-cyano-N-methylacetamido)methyl)-7-ethyl-4-(4-fluorophenyl)-6-oxo-1-phenyl-4,5,6,7-tetrahydro-1H-pyrazolo[3,4-b]pyridin-5-yl)-4-(trifluoromethyl)pyrimidine-2-carboxamide], the IC50 in test [1] (Homo sapiens, TF-1, 3 h) fell in the range of 100 to 1000 nM; in test [2] (setting [3]) it was 1000 to 3000 nM; in test [2] (setting [4]), 1000 to 3000 nM.
As for `CCN1C(=O)[C@@H](NC(=O)c2cccc(C(F)(F)F)c2)[C@@H](C2CC2)c2c(C(=O)N(CC#N)C3CC3)nn(-c3ccccc3)c21` [Compound I-619], the IC50 was 100 to 1000 nM in test [1] (Homo sapiens, TF-1, 3 h); not above 200 nM in test [2] (setting [3]); 1000 to 3000 nM in test [2] (setting [4]).
Regarding `CCN1C(=O)[C@@H](NC(=O)c2cccc(C(F)(F)F)c2)[C@@H](C2CCCC2)c2c(C(=O)N(C)[C@@H](C)C#N)nn(C3CCOCC3)c21` [Compound I-559], the IC50 in test [1] (Homo sapiens, TF-1, 3 h) was not above 100 nM; in test [2] (setting [3]) it was not above 200 nM; in test [2] (setting [4]), 200 to 1000 nM.
With `CCN1C(=O)[C@@H](NC(=O)c2cccc(C(F)(F)F)c2)[C@@H](c2ccc(F)cc2)c2c(C(=O)N3C[C@H](NC)C[C@H]3C#N)nn(C3CCOCC3)c21` (mixture of isomers) [Compound I-509, N-((4S,5S)-3-((2S,4R)-2-cyano-4-(methylamino)pyrrolidine-1-carbonyl)-7-ethyl-4-(4-fluorophenyl)-6-oxo-1-(tetrahydro-2H-pyran-4-yl)-4,5,6,7-tetrahydro-1H-pyrazolo[3,4-b]pyridin-5-yl)-3-(trifluoromethyl)benzamide], the IC50 in test [1] (Homo sapiens, TF-1, 3 h) was not above 100 nM; in test [2] (setting [3]) it was not above 200 nM; in test [2] (setting [5]), not above 200 nM.
As to `CCN1C(=O)[C@@H](NC(=O)c2cccc(C(F)(F)F)c2)[C@@H](C2CC2)c2c(C(=O)N(CC#N)C3CC3)nn(C3CC3)c21` [Compound I-702], the IC50 in test [1] (Homo sapiens, TF-1, 3 h) was 100 to 1000 nM; in test [2] (setting [3]) it was 200 to 1000 nM; in test [2] (setting [4]) it was 1000 to 3000 nM.
For `CCN1C(=O)[C@@H](NC(=O)c2ccc3ccoc3c2)[C@@H](C2CC2)c2c(C(=O)N3[C@H](C#N)C[C@H]4C[C@H]43)nn(C3CCOCC3)c21` [Compound I-526], the IC50 was not above 100 nM in test [1] (Homo sapiens), not above 200 nM in test [2] (setting [3]) and not above 200 nM in test [2] (setting [5]).
Turning to `CCN1C(=O)[C@@H](NC(=O)c2cccc(C(F)(F)F)c2)[C@@H](C2CC2)c2c(C(=O)N(C)[C@@H](C#N)CCN(C)C)nn(C3CCOCC3)c21` [Compound I-550], the IC50 in test [1] (Homo sapiens, TF-1, 3 h) is not above 100 nM; in test [2] (setting [3]) it was not above 200 nM; in test [2] (setting [5]), not above 200 nM.
With `CCN1C(=O)[C@@H](NC(=O)c2cccc(C(F)(F)F)c2)[C@@H](C2CC2)c2c(C(=O)N3CCNC[C@@H]3C#N)nn(-c3ccccc3)c21` (single isomer, unassigned) [Compound I-518], the IC50 is not above 100 nM in test [1] (Homo sapiens, TF-1, 3 h); not above 200 nM in test [2] (setting [3]); 200 to 1000 nM in test [2] (setting [4]).
Consider `COCCN1C(=O)[C@@H](NC(=O)c2cccc(C(F)(F)F)c2)[C@@H](C2CC2)c2c(C(=O)N3[C@H](C#N)C[C@H]4C[C@H]43)nn(C3CCOCC3)c21` [Compound I-474], for which the IC50 is 100 to 1000 nM in test [1] (Homo sapiens, TF-1, 3 h); 200 to 1000 nM in test [2] (setting [3]); 1000 to 3000 nM in test [2] (setting [4]).
For `CCN1C(=O)[C@H](NC(=O)c2cccc(C(F)(F)F)c2)[C@H](c2ccc(F)cc2)c2c(C(=O)N(CC#N)CCO)nn(-c3ccccc3)c21` (stereo in doubt) [Compound I-639], the IC50 in test [1] (Homo sapiens, TF-1, 3 h) is more than 1000 nM; in test [2] (setting [3]) it was 1000 to 3000 nM; in test [2] (setting [4]), 1000 to 3000 nM.
As for `CCN1C(=O)[C@@H](NC(=O)c2nccc(C(F)(F)F)n2)[C@H](c2ccc(F)cc2)c2c(CC(=O)N[C@H](C)C#N)nn(-c3ccccc3)c21` (single isomer, unassigned) [Compound I-607], the half-maximal inhibitory concentration (IC50) in test [1] (Homo sapiens, TF-1, 3 h) was more than 1000 nM; in test [2] (setting [3]), 1000 to 3000 nM; in test [2] (setting [4]), 200 to 1000 nM.
Take `CCN1C(=O)[C@@H](NC(=O)c2ccc3cn[nH]c3c2)[C@@H](C2CC2)c2c(C(=O)N3[C@H](C#N)C[C@H]4C[C@H]43)nn(C3CCOCC3)c21` [Compound I-563]: the IC50 in test [1] (Homo sapiens, TF-1, 3 h) is more than 1000 nM; in test [2] (setting [3]), 1000 to 3000 nM; in test [2] (setting [4]), 1000 to 3000 nM.
With `CCN1C(=O)[C@@H](NC(=O)c2cccc(C(F)(F)F)c2)[C@@H](C2CC2)c2c(C(=O)N(C)[C@H](C#N)CCN(C)C)nn(C3CCOCC3)c21` [Compound I-589], the IC50 is not above 100 nM in test [1] (Homo sapiens, TF-1, 3 h); not above 200 nM in test [2] (setting [3]); not above 200 nM in test [2] (setting [5]).
For the compound `CCN1C(=O)[C@@H](NC(=O)c2ccn(C(F)(F)F)n2)[C@@H](c2ccc(F)cc2)c2c(C(=O)N3CCN(C)CC3C#N)nn(-c3ccccc3)c21` (stereo partly drawn) [Compound I-684, N-((4S,5S)-3-(2-cyano-4-methylpiperazine-1-carbonyl)-7-ethyl-4-(4-fluorophenyl)-6-oxo-1-phenyl-4,5,6,7-tetrahydro-1H-pyrazolo[3,4-b]pyridin-5-yl)-1-(trifluoromethyl)-1H-pyrazole-3-carboxamide], the IC50 in test [1] (Homo sapiens, TF-1, 3 h) is not above 100 nM; in test [2] (setting [3]) it was not above 200 nM; in test [2] (setting [5]) it was not above 200 nM.
